# Values of other authors, collected in PubChem BioAssay AID1259409 (Chemical Carcinogenesis Research Information System (CCRIS), 2018).
# Tested on: rodent chemically induced tumor inhibition, incidence and multiplicity
# Assay: CCRIS tumor inhibitor studies
smiles,measurement,setting,value
Cc1ccc(Cl)c(Nc2ccccc2C(=O)O)c1Cl,"tumour outcome (control, treated, inhibition, significance)","Carcinogen: 1,2-DIMETHYLHYDRAZINE DIHYDROCHLORIDE, 306-37-6, Dose [Inhibitor]: 50 MG/L TAP WATER DAILY FOR 32 WK STARTING SIMULTANEOUSLY WITH CARCINOGEN TREATMENT (STUDY DURATION: 32 WK), Route [Inhibitor]: ORAL, Species: RAT, Strain/Sex: SPRAGUE-DAWLEY/MALE, Target Tissue: Type of Lesion: LARGE INTESTINE: TUMOR, Dose [Carcinogen]: 20 MG/KG BW WEEKLY FOR 20 WK, Promoter: NONE USED","88%, 90%, -2%, not significant"
same,"tumour outcome (control, treated, inhibition, significance)","Carcinogen: 1,2-DIMETHYLHYDRAZINE DIHYDROCHLORIDE, 306-37-6, Dose [Inhibitor]: 50 MG/L TAP WATER DAILY FOR 32 WK STARTING SIMULTANEOUSLY WITH CARCINOGEN TREATMENT (STUDY DURATION: 32 WK), Route [Inhibitor]: ORAL, Species: RAT, Strain/Sex: SPRAGUE-DAWLEY/MALE, Target Tissue: Type of Lesion: SMALL INTESTINE: TUMOR, Dose [Carcinogen]: 20 MG/KG BW WEEKLY FOR 20 WK, Promoter: NONE USED","46%, 35%, 24%, not significant"
C=C(C)[C@@H](CC=C(C)C)CC12C[C@@H](CC=C(C)C)C(C)(C)C(CC=C(C)C)(C(=O)/C(=C(\O)c3ccc(O)c(O)c3)C1=O)C2=O (stereo partly specified),outcome,"Carcinogen: 4-NITROQUINOLINE 1-OXIDE [56-57-5], Dose [Inhibitor]: 0, 100, 500 PPM FOR 8 WKS STARTING AT 6 WKS OF AGE TO 1 WK AFTER CARCINOGEN EXPOSURE (STUDY DURATION: 32 WKS), Dose [Inhibitor]: 0, 100, 500 PPM FOR 8 WKS STARTING AT 6 WKS OF AGE TO 1 WK AFTER CARCINOGEN EXPOSURE (STUDY DURATION: 32 WKS), Route [Inhibitor]: ORAL (DIET), Species: RAT, Strain/Sex: F344/MALE (?,26)/(?,16), Target Tissue: Type of Lesion: TONGUE: SQUAMOUS CELL CARCINOMA, Dose [Carcinogen]: 20 PPM FOR 8 WKS STARTING AT 7 WKS OF AGE (STUDY DURATION: 32 WKS)","(13/26) 50%; (2/16) 12.5%, 75%, p<0.02; (1/16) 6.3%, 87%, p<0.005"
same,outcome,"Carcinogen: 4-NITROQUINOLINE 1-OXIDE [56-57-5], Dose [Inhibitor]: 0, 100, 500 PPM FOR 8 WKS STARTING AT 6 WKS OF AGE TO 1 WK AFTER CARCINOGEN EXPOSURE (STUDY DURATION: 32 WKS), Dose [Inhibitor]: 0, 100, 500 PPM FOR 8 WKS STARTING AT 6 WKS OF AGE TO 1 WK AFTER CARCINOGEN EXPOSURE (STUDY DURATION: 32 WKS), Route [Inhibitor]: ORAL (DIET), Species: RAT, Strain/Sex: F344/MALE (?/26)/(?,16), Target Tissue: Type of Lesion: TONGUE: PAPILLOMA, Dose [Carcinogen]: 20 PPM FOR 8 WKS STARTING AT 7 WKS OF AGE (STUDY DURATION: 32 WKS)","(4/26) 15.4%; (1/16) 6.3%, 59.1%; (1/16) 6.3%, 59.1%"
same,outcome,"Carcinogen: 4-NITROQUINOLINE 1-OXIDE [56-57-5], Dose [Inhibitor]: 100, 500 PPM STARTING 1 WK AFTER CARCINOGEN FOR 22 WKS (STUDY DURATION: 32 WKS), Route [Inhibitor]: ORAL (DIET), Species: RAT, Strain/Sex: F344/MALE (?,26)/(?,15), Target Tissue: Type of Lesion: TONGUE: PAPILLOMA, Dose [Carcinogen]: 20 PPM FOR 8 WKS STARTING AT 7 WKS OF AGE (STUDY DURATION: 32 WKS)","(4/26) 15%; (3/15) 20%, -30%; (2/15) 13%, 14%"
same,outcome,"Carcinogen: 4-NITROQUINOLINE 1-OXIDE [56-57-5], Dose [Inhibitor]: 100, 500 PPM STARTING 1 WK AFTER CARCINOGEN FOR 22 WKS (STUDY DURATION: 32 WKS), Route [Inhibitor]: ORAL (DIET), Species: RAT, Strain/Sex: F344/MALE (?,26)/(?,15), Target Tissue: Type of Lesion: TONGUE: SQUAMOUS CELL CARCINOMA, Dose [Carcinogen]: 20 PPM FOR 8 WKS STARTING AT 7 WKS OF AGE (STUDY DURATION: 32 WKS)","(13/26) 50%; (1/15) 6.7%, 87%, p<0.05; (0/15) 0%, 100%, p<0.001"
CC(C)=CCC/C(C)=C/CC/C(C)=C/CC/C=C(\C)CC/C=C(\C)CCC=C(C)C,"tumour outcome (control, treated, inhibition, significance)","Carcinogen: BENZO[A]PYRENE, 50-32-8, Dose [Inhibitor]: 25 MG IN 0.1 ML ACETONE 3/WK ADMINISTERED SIMULTANEOUSLY WITH CARCINOGEN FOR DURATION OF STUDY (STUDY DURATION: 440 D), Route [Inhibitor]: DERMAL, Species: MOUSE, Strain/Sex: ICR/FEMALE, Target Tissue: Type of Lesion: SKIN: PAPILLOMA, Dose [Carcinogen]: 5 UG IN 0.1 ML ACETONE 3/WK FOR DURATION OF STUDY, Promoter: NONE USED","16/50 (32%), 1/50 (2%), 94%, not calculated"
same,"tumour outcome (control, treated, inhibition, significance)","Carcinogen: BENZO[A]PYRENE, 50-32-8, Dose [Inhibitor]: 25 MG IN 0.1 ML ACETONE 3/WK ADMINISTERED SIMULTANEOUSLY WITH CARCINOGEN FOR DURATION OF STUDY (STUDY DURATION: 440 D), Route [Inhibitor]: DERMAL, Species: MOUSE, Strain/Sex: ICR/FEMALE, Target Tissue: Type of Lesion: SKIN: SQUAMOUS CARCINOMA, Dose [Carcinogen]: 5 UG IN 0.1 ML ACETONE 3/WK FOR DURATION OF STUDY, Promoter: NONE USED","12/50 (24%), 0/50 (0%), 100%, not calculated"
O=C1C[C@@H](c2ccc(O)cc2)Oc2cc(O)cc(O)c21,"tumour outcome (control, treated, inhibition, significance)","Carcinogen: 7,12-DIMETHYLBENZ[A]ANTHRACENE, 57-97-6, Dose [Inhibitor]: 100 UG IN 0.2 ML ACETONE ONCE 5 MIN BEFORE CARCINOGEN TREATMENT (STUDY DURATION: 31 WK), Route [Inhibitor]: DERMAL, Species: MOUSE, Strain/Sex: CD-1/FEMALE, Target Tissue: Type of Lesion: SKIN: PAPILLOMA, Dose [Carcinogen]: 10 NMOL IN 0.2 ML ACETONE ONCE, Promoter: 12-O-TETRADECANOYLPHORBOL-13-ACETATE, 16561-29-8","87%, 94%, -8%, not calculated"
same,outcome,"Carcinogen: N-Methyl-N'-nitro-N-nitrosoguanidine (70-25-7) and saturated sodium chloride (7647-14-5), Dose [Inhibitor]: 200 mg/kg bw dissolved in corn oil for 20 wk from first dose of MNNG + NaCl and from the 6th wk of MNNG + NaCl induction, Route [Inhibitor]: Gavage, Species: Rat, Strain/Sex: Wistar/Male, Target Tissue: Type of Lesion: Stomach, Dose [Carcinogen]: 200 mg/kg at days 0 and 14 (MNNG) and 1 ml/rat 3 days for 4 wk (NaCl); study duration 20 wk), Promoter: None",0 (0) in negative controls; 6 (100) in positive controls; 0 (0) simultaneous tre
COc1cc(C2OCC3C(c4ccc5c(c4)OCO5)OCC23)ccc1O (stereo unspecified),"tumour outcome (control, treated, inhibition, significance)","Carcinogen: 7,12-DIMETHYLBENZ[A]ANTHRACENE, 57-97-6, Dose [Inhibitor]: 0, 85 NMOL IN 0.1 ML ACETONE 2/WK FOR 20 WK APPLIED 1 HR PRIOR TO EACH PROMOTER DOSE (STUDY DURATION: 20 WK), Route [Inhibitor]: DERMAL, Species: MOUSE, Strain/Sex: ICR/FEMALE, Target Tissue: Type of Lesion: SKIN: PAPILLOMA, Dose [Carcinogen]: 100 UG IN 0.1 ML ACETONE ONCE, Promoter: 12-O-TETRADECANOYLPHORBOL-13-ACETATE, 16561-29-8","100%, 80%, 20%, not calculated"
CC(C)=CCC/C(C)=C/Cc1cc2ccc(=O)oc2cc1O,"tumour outcome (control, treated, inhibition, significance)","Carcinogen: 7,12-DIMETHYLBENZ[A]ANTHRACENE, 57-97-6, Dose [Inhibitor]: 0, 400 NMOL ONCE APPLIED 5 MIN PRIOR TO CARCINOGEN DOSE (STUDY DURATION: 25 WK), Route [Inhibitor]: DERMAL, Species: MOUSE, Strain/Sex: SENCAR, Target Tissue: Type of Lesion: SKIN: PAPILLOMA, Dose [Carcinogen]: 10 NMOL ONCE, Promoter: 12-O-TETRADECANOYLPHORBOL-13-ACETATE, 16561-29-8","96%, 96%, 0%, not significant"
same,"tumour outcome (control, treated, inhibition, significance)","Carcinogen: 7-12-DIMETHYLBENZ[A]ANTHRACENE, 57-97-6, Dose [Inhibitor]: 0, 1200 NMOL ONCE APPLIED 5 MIN PRIOR TO CARCINOGEN DOSE (STUDY DURATION: 25 WK), Route [Inhibitor]: DERMAL, Species: MOUSE, Strain/Sex: SENCAR, Target Tissue: Type of Lesion: SKIN: PAPILLOMA, Dose [Carcinogen]: 10 NMOL ONCE, Promoter: 12-O-TETRADECANOYLPHORBOL-13-ACETATE, 16561-29-8","93%, 96%, -3%, not significant"
same,"tumour outcome (control, treated, inhibition, significance)","Carcinogen: BENZO[A]PYRENE, 50-32-8, Dose [Inhibitor]: 0, 400 NMOL ONCE APPLIED 5 MIN PRIOR TO CARCINOGEN DOSE (STUDY DURATION: 25 WK), Route [Inhibitor]: DERMAL, Species: MOUSE, Strain/Sex: SENCAR, Target Tissue: Type of Lesion: SKIN: PAPILLOMA, Dose [Carcinogen]: 200 NMOL ONCE, Promoter: 12-O-TETRADECANOYLPHORBOL-13-ACETATE, 16561-29-8","91%, 91%, 0%, not significant"
same,"tumour outcome (control, treated, inhibition, significance)","Carcinogen: BENZO[A]PYRENE, 50-32-8, Dose [Inhibitor]: 0, 1200 NMOL ONCE APPLIED 5 MIN PRIOR TO CARCINOGEN DOSE (STUDY DURATION: 25 WK), Route [Inhibitor]: DERMAL, Species: MOUSE, Strain/Sex: SENCAR, Target Tissue: Type of Lesion: SKIN: PAPILLOMA, Dose [Carcinogen]: 200 NMOL ONCE, Promoter: 12-O-TETRADECANOYLPHORBOL-13-ACETATE, 16561-29-8","92%, 93%, -1%, not significant"
CC(=O)Nc1nnc(S(N)(=O)=O)s1,"tumour outcome (control, treated, inhibition, significance)","Carcinogen: N-BUTYL-N-(4-HYDROXYBUTYL)NITROSAMINE, 3817-11-6, Dose [Inhibitor]: 0.35% DIET DAILY FOR 34 WK STARTING AFTER CARCINOGEN TREATMENT (STUDY DURATION: 38 WK), Route [Inhibitor]: ORAL, Species: RAT, Strain/Sex: F344/MALE, Target Tissue: Type of Lesion: URINARY BLADDER: PAPILLOMA, Dose [Carcinogen]: 0.01% IN DRINKING WATER FOR 4 WK, Promoter: NONE USED","33%, 15%, 55%, not significant"
